The record followed here is patent publication EP4703362A1 (Chengdu Sibeibo Pharmaceutical Technology Co., Ltd, priority 2023, dated 2024).

The microsomal CLint is the capacity of the preparation to metabolise the compound, expressed as a volume cleared per time. In general, AUC refers to the area under the concentration-time curve, a measure of exposure. In general, bioavailability refers to the share of a dose that reaches the circulation, judged against a reference dose that is usually intravenous. The Ki is a measure of affinity in units of concentration, obtained from inhibition or displacement.

Each structure is given as a SMILES string. Like-named read-outs stand apart in the source and are kept apart here.

The subject of series [1] is capsaicin-induced change of blood flow in forearm skin of cynomolgus monkeys. Description: in-vivo pharmacodynamic study, capsaicin-induced change of blood flow in forearm skin. As to conditions: 0.05 mg/kg IV, 10 minutes after capsaicin treatment. As for the experimental part:
• 2.1Animal information: Species and strain: cynomolgus monkeys, male (5-8 kg), animal license: SYXK(Su)2019-0004, depilated 3 days before the experiment. • 2.2Preparation of test sample: An appropriate amount of drug was accurately weighed and dissolved in sterile saline solution, and mixed evenly and dissolved fully in an ultrasonic and vortexed mode to obtain a 0.05 mg/ml drug solution for intravenous (IV) administration. • 2.3In a pre-test stage, a blood flow in a forearm of an anesthetized animal was scanned by a blood flow meter, and an O-shaped rubber ring was placed on an inner side of the arm, avoiding obvious blood vessels.

A short description of series [2]: plasma protein binding rate test, equilibrium dialysis (human). As to conditions: 1 µM, 6 hours, 37°C. The format is in vitro ADME. On the procedure: (§1) Protein binding rates of the compound of the present invention in plasma of rat, monkey and human were determined by an equilibrium dialysis method. Tested compounds of the present invention were the compounds in Examples 6, 8 and 29, and a control drug was Zavegepant.
(§2) 3.1 A dry dialysis membrane was rinsed with ultrapure water for 2-3 times, and then soaked in a phosphate buffer for 1 hour for later use. Polytetrafluoroethylene module was soaked in 20% ethanol for 30 minutes, and then surface moisture was dried with dust-free paper for later use. The pretreated dialysis membrane was assembled into a dialysis plate according to the product specification, and one side (receptor compartment) of an osmotic membrane in each dialysis well was added with 100 µL of receptor fluid (100 mM phosphate buffer solution plus 0.002% Tween 80).
(§3) 3.2 The plasma was put into a centrifuge tube, a working solution of a tested substance was added into the plasma, wherein a final concentration was 1 µM, and the mixture was turned upside down and mixed evenly (this step was carried out in ice bath). 20 µL of drug-containing plasma each was taken, and was respectively transferred to a 96-well sample plate according to two parts in parallel, and stored in a refrigerator at -20°C as a T0 sample.
(§4) 3.3 Another 100 µL of the above drug-containing plasma was transferred to the other side (sample compartment) of the membrane in the dialysis device according to two parts in parallel, and incubated under vibration at a constant temperature of 37°C for 6 hours. After 6 hours of incubation, 20 µL of the plasma was respectively taken out from the receptor compartment and the sample compartment after equilibration to obtain samples B and A. The samples B and A were respectively added with corresponding volumes of corresponding blank plasma or phosphate buffer solution (containing 0.002% Tween 80), so that a volume ratio of the plasma to the buffer solution in each sample well was 1: 1.
(§5) 3.4 All sample wells were added with 250 µL of methanol solution containing an internal standard, mixed evenly and then centrifuged in a centrifuge at 3800 rpm for 10 minutes. […]
(§6) A plasma protein binding rate and a recovery rate of the compound in plasma were calculated by the following formulas: dissociation percentage (%) = CB /CA; [formula] plasma protein binding rate (fb%) = 1−dissociation percentage (%); [formula] recovery rate (%) = (CB+CA)/CT0 [formula] wherein CB was a concentration of the compound in the receptor fluid after equilibrium dialysis; CA was a concentration of the compound in the drug-containing plasma after equilibrium dialysis; and CT0 was an initial concentration of the compound in plasma.
In general terms: In equilibrium dialysis only unbound substance equilibrates across the membrane.

The nature of series [3]: plasma protein binding rate test, equilibrium dialysis (monkey). The format is in vitro ADME, cynomolgus monkey. The conditions noted are these: 1 µM, 6 hours, 37°C. As for the experimental part:
as §1, §2, §3, §4, §5, §6

Series [4] can be described thus: plasma protein binding rate test, equilibrium dialysis (rat). The format is in vitro ADME, SD rat. As to conditions: 1 µM, 6 hours, 37°C. On the procedure:
as §1, §2, §3, §4, §5, §6

The nature of series [5]: stability test in liver microsomes (rat). The format is in vitro ADME. On the procedure:
(§7) The stability of the compound of the present invention in liver microsomes of rat, monkey and human was determined. Tested compounds of the present invention were the compounds in Examples 6, 8 and 29, and a control drug was Zavegepant.
(§8) 3.2 An appropriate amount of liver microsome solution was transferred into a 1 mL 96-deep-well plate, added with a tested drug liquid (or a probe substrate solution), and pre-incubated in a thermal mixer at 37°C for 5 minutes. Two parts of mixed solutions were taken out from the system and added with 1×PBS to replace NADPH, and the mixed solutions were taken out at 0 and 60 minutes respectively, and added with methanol (containing an internal standard) to terminate the reaction. In the remaining mixed system, each well was added with NADPH to start the reaction. In the tested substance group, mixed solutions were taken out from the system at 0, 5, 15, 30, 45 and 60 minutes, and in the control group, mixed solutions were taken out from the system at 0, 30 and 60 minutes, and the mixed solutions were added methanol (containing an internal standard) to terminate the reaction. All samples of the terminated reaction were mixed evenly and centrifuged in a centrifuge at 3800 rpm for 15 minutes, and the supernatant was taken for LC-MS/MS analysis.
(§9) A peak area was determined by an extracted ion chromatogram. A slope value k was determined by linear regression of a remaining percentage of a parent drug relative to a natural logarithm of an incubation time curve. According to the slope, in-vitro half-life periods (t1/2) were respectively calculated, and in-vitro intrinsic clearance rates (CLint, represented by µL/min/mg protein) were calculated. Calculation formulas were as follows: t1/2 = ln2/k = 0.693/k; and CLint = 0.693/t1/2 /liver microsome protein concentration [formula]
Background: Liver microsomes are vesicles of endoplasmic reticulum, rich in cytochrome P450 enzymes.

Series [6] can be described thus: stability test in liver microsomes (human). Type of series: in vitro ADME. On the procedure: as §7, §8, §9
The nature of series [7]: in-vivo pharmacokinetic study on SD rats, intravenous and intranasal administration. As to conditions: for AUC / bioavailability / half-life / Vd / Cmax: rat, plasma; for AUC: read-out: Area under curve AUC; for bioavailability: read-out: Bioavailability F%; for half-life: read-out: Half-life period t1/2 (converted); for Vd: read-out: Volume of distribution steady-state Vss; for Cmax: read-out: Concentration to peak Cmax. On the procedure: Species: SD rats, male, SPF level.
2.1 An appropriate amount of drug was accurately weighed and added with 50 mM succinate buffer (diluted with D5W, pH=5-6), and mixed evenly and dissolved fully in an ultrasonic and vortexed mode to obtain a 0.2 mg/mL drug solution for intravenous (IV) administration.
2.2 An appropriate amount of drug was accurately weighed and added with 50 mM succinate buffer (diluted with pure water, pH=5-6), and mixed evenly and dissolved fully in an ultrasonic and vortexed mode to obtain a 10 mg/mL drug solution for intranasal (IN) administration.
5 minutes, 10 minutes, 15 minutes, 0.5 hour, 1 hour, 2 hours, 4 hours, 8 hours and 24 hours after administration.
Blood was collected through a jugular vein, about 0.2 mL of each sample was collected, EDTA-K2 was used for anticoagulation, the collected blood sample was placed on ice, and plasma was centrifugally separated within 2 hours (at 6000 g and 2-8°C for 5 minutes). The collected plasma samples were stored in a refrigerator at -80°C before analysis, and the remaining plasma samples after analysis were continuously stored in the refrigerator at -80°C for temporary storage.
A concentration of a specified compound in plasma was determined by an LC-MS/MS method, and main pharmacokinetic parameters were calculated by a Winnolin 8.3 non-compartmental model.

Series [8] in a line: stability test in liver microsomes (monkey). The format is in vitro ADME. On the procedure:
as §7, §8, §9

For the next series, the target named is T1, CGRP receptor (Homo sapiens, UniProt O60894+Q16602).
T1 construct: A tissue homogenate of SK-N-MC cell membrane was used as a receptor source; host or cells: SK-N-MC (membrane preparation)
Description: Competitive binding determination of in-vitro [125I] CGRP. The conditions noted are these: competition with 125I-CGRP (Human) 200 pM, SK-N-MC cell membrane.

[9] abbreviates: male, other: intranasal, IN@2 mg/kg.

As for `Cc1cc(C[C@@H](NC(=O)N2CCC(c3cc4c([nH]c3=O)SCCC4)CC2)C(=O)N2CCN(C3CCN(C)CC3)CC2)cc2cn[nH]c12` [Example 6, (R)-N-(3-(7-methyl-1H-indazole-5-yl)-1-(4-(1-methylpiperidine-4-yl)piperazine-1-yl)-1-oxopropan-2-yl)-4-(7-oxo-3,4,7,8-tetrahydro-2H-thiopyrano[2,3-b]pyridine-6-yl)piperidine-1-for mamide], the “blood flow inhibition rate (Mean)” value in series [1] amounted to 355.3%. The “fb (%)” value in [2] is 76.7%. For the same compound, the “fb (%)” value in series [3] was determined as 61.3%. For the same compound, the “fb (%)” value in [4] was determined as 90.0%. In [5], the half-life at 1 µM was above 2 h, the microsomal CLint at 1 µM turned out to be 2.4 µL/min/mg and the “% remaining (60 min)” value was determined as 91.5%. For the same compound, in series [6], the half-life at 1 µM was above 2 h and the “% remaining (60 min)” value amounted to 131%. In series [7] (IN@2 mg/kg), the AUC was 2400 ng·h/mL, the bioavailability was determined as 20.1% and the half-life was 3.8 h. Besides, in series [7] (IV@1 mg/kg), the AUC worked out at 5990 ng·h/mL, the half-life was 2.52 h and the Vd is 0.29 L/kg. Besides, in series [8], the half-life at 1 µM is above 2 h, the microsomal CLint at 1 µM amounted to 0.8 µL/min/mg and the “% remaining (60 min)” value amounted to 96.9%.

Take `Cc1cc(C[C@@H](NC(=O)N2CCC(c3cc4c([nH]c3=O)SCC4)CC2)C(=O)N2CCN(C3CCN(C)CC3)CC2)cc2cn[nH]c12` [Example 8, (R)-N-(3-(7-methyl-1H-indazole-5-yl)-1-(4-(1-methylpiperidine-4-yl)piperazine-1-yl)-1-oxopropan-2-yl)-4-(6-oxo-2,3,6,7-tetrahydrothieno[2,3-b]pyridine-5-yl)piperidine-1-formamide]: in series [2], the “fb (%)” value is reported as 64.1%. In [3], the “fb (%)” value turned out to be 47.7%. Besides, in [4], the “fb (%)” value worked out at 69.4%. Further, in [5], the half-life at 1 µM was above 2 h, the microsomal CLint at 1 µM was 1.6 µL/min/mg and the “% remaining (60 min)” value was 90.7%. Further, in series [6], the half-life at 1 µM is above 2 h, the microsomal CLint at 1 µM was 3.2 µL/min/mg and the “% remaining (60 min)” value was determined as 85.8%. Also, the “Apparent clearance CL” value in [7] (IV@1 mg/kg) worked out at 5.94 mL/min/kg. Besides, in [7] (male, IV@1 mg/kg), the AUC was found to be 2850 ng·h/mL, the half-life was 7.58 h and the Vd turned out to be 0.5 L/kg. Further, in [7] (setting [9]), the exposure (AUC) is 626 ng·h/mL, the bioavailability amounted to 11%, the Cmax turned out to be 204 ng/mL and the half-life was 3.41 h. Moreover, in [8], the half-life at 1 µM was 1.48 h, the microsomal CLint at 1 µM amounted to 15.6 µL/min/mg and the “% remaining (60 min)” value came out at 61.6%.

Take `Cc1cc(C[C@@H](NC(=O)N2CCC(c3cc4ccccc4[nH]c3=O)CC2)C(=O)N2CCN(C3CCN(C)CC3)CC2)cc2cn[nH]c12` [Zavegepant, zavegepant, reference compound]: the “blood flow inhibition rate (Mean)” value in series [1] amounted to 89.7%. Also, the Ki at CGRP receptor came out at 0.0498 nM. For the same compound, in [2], the “fb (%)” value stood at 82.0%. Moreover, the “fb (%)” value in series [3] turned out to be 78.5%. Besides, the “fb (%)” value in series [4] turned out to be 92.7%. Also, in series [5], the half-life at 1 µM is above 2 h, the microsomal CLint at 1 µM is 2.8 µL/min/mg and the “% remaining (60 min)” value is on record as 95.5%. In series [6], the half-life at 1 µM was determined as 1.11 h, the microsomal CLint at 1 µM was 20.8 µL/min/mg and the “% remaining (60 min)” value worked out at 57.5%. Further, the “Apparent clearance CL” value in series [7] (IV@1 mg/kg) came out at 4.59 mL/min/kg. In series [7] (male, IV@1 mg/kg), the AUC was found to be 3620 ng·h/mL, the half-life was 2.58 h and the Vd was found to be 0.35 L/kg. In addition, in series [7] (setting [9]), the AUC stood at 385 ng·h/mL, the bioavailability turned out to be 5.31%, the Cmax was determined as 645 ng/mL and the half-life is 1.08 h. In series [8], the half-life at 1 µM worked out at 1.78 h, the microsomal CLint at 1 µM worked out at 13 µL/min/mg and the “% remaining (60 min)” value is 72.1%.
